# Measurements: patent US20050136536A1, “Embryonic epithelial cells” (priority 2003, published 2005)
# System: cytokeratin 7
# Test: differentiation of hES cells on gelatin-coated glass slides, cytokeratin 7 staining
# Type: cell-based, human
# Conditions: 300 nM AM580, serum medium, stained after 6 or 8 days
# Experimental: H9 cells (Thomson, J. A., et al., “Embryonic stem cells lines derived from human blastocysts”, Science 282, 1145-1147 (1998)) were grown as described in Spradling, A., et al., “Stem cells find their niche”, Nature 414, 98-104 (2001), the entire contents of which are incorporated herein by reference. C2C12 cells were grown as described in Yaffee, D. & Saxel, O., “Serial passaging and differentiation of myogenic cells isolated from dystrophic mouse muscle”, Nature 270, 725-7 (1977). Specifically, hES cells (H9 clone) were grown on mouse embryo fibroblasts (Cell Essential) in KnockOut Medium (Gibco-BRL, Gaithersburg, Md.), a modified version of Dulbeco's modified Eagle's medium optimized for ES cells (Itskovitz-Eldor, et. al., (2000) Mol. Med. 6, 88-95, the contents of which are incorporated herein by reference). Tissue cover plates were covered with 0.1% gelatin (Sigma). Culture were grown in 5% CO2 and were routinely passaged every 5-6 days after disaggregating with 1 mg/ml collagenase type IV (Gibco-BRL). To induce formation of EBs, hES colonies were digested using either 1 mg/ml collagenase type IV or trypsin/EDTA (0.1%/1 mM) and transferred to petri dishes to allow their aggregation and prevent adherence to the plate. […]
smiles,measurement,value
CC1(C)CCC(C)(C)c2cc(C(=O)Nc3ccc(C(=O)O)cc3)ccc21 [AM580],development of cytokeratin 7-positive cells,increases the development of cytokeratin 7-positive cells
